In patent US10556943B2, “HLA-DR binding peptides and their uses” (priority 2007, dated 2020) one finds IC50 data, which are given here for three compounds.

One assay concerns the target T1, purified HLA DRB3*0101 (Homo sapiens, UniProt P01903+P79483).
T1 construct: MHC molecules utilized were purified from EBV transformed homozygous cell lines or single MHC allele transfected 721.221, C1R, or fibroblast lines; made in house; host or cells: EBV transformed homozygous cell lines or single MHC allele transfected 721.221, C1R, or fibroblast lines
As to the kind of experiment: HLA-DR radioligand binding inhibition assay, DRB3*0101. The protocol: (§1) Fifteen distinct HLA-DR molecules were used in quantitative assays to measure the binding of peptides to solubilized HLA-DR molecules. […] Briefly, columns of inactivated Sepharose CL4B and Protein A Sepharose were used as pre-columns. HLA-DR molecules were captured by passage of lysates over LB3.1 monoclonal antibody (anti-HLA-DRA) columns. Antibody columns were washed with 10 mM Tris-HCL, pH8.0 with 1% (v/v) NP-40, followed by PBS containing 0.4% (w/v) n-octylglucoside. […] The pH was reduced to 8.0 and the eluates were concentrated by centrifugation in Centriprep 30 concentrators at 2000 rpm (Amicon, Beverly, Mass.).
(§2) Briefly, 1-10 nM of radiolabeled peptide was co-incubated for 2 days at either room temperature or 37° C. with 1 μM to 1 nM purified HLA-DR molecules in the presence of a cocktail of protease inhibitors. Assays were performed at various pH conditions, ranging from pH 4 to pH 7. […] After incubation, the percentage of HLA-DR-bound radioactivity is determined by capturing HLA-DR/peptide complexes on Optiplates (Packard Instruments, Meriden, Conn.) coated with the LB3.1 antibody and determining bound counts per minute using the TopCount microscintillation counter (Packard Instruments). […] Competitor peptides are tested in 2-4 complete, independent experiments, at concentrations ranging from 30 μg/mL to 300 pg/mL.

Another assay deals with T2, purified HLA DRB1*0101 (Homo sapiens, UniProt P01903+P01911, A100R/D57E/F55L/F60I/F76Y/I96L/L162R/M171V/P40L/Q125E/R42F/V115G/Y59C).
T2 construct: MHC molecules utilized were purified from EBV transformed homozygous cell lines or single MHC allele transfected 721.221, C1R, or fibroblast lines; made in house; host or cells: EBV transformed homozygous cell lines or single MHC allele transfected 721.221, C1R, or fibroblast lines
Kind of assay: HLA-DR radioligand binding inhibition assay, DRB1*0101. Particulars: read-out: IC50 to purified HLA DRB1*0101. The protocol: (§3) Fifteen distinct HLA-DR molecules were used in quantitative assays to measure the binding of peptides to solubilized HLA-DR molecules. […] Briefly, columns of inactivated Sepharose CL4B and Protein A Sepharose were used as pre-columns. HLA-DR molecules were captured by passage of lysates over LB3.1 monoclonal antibody (anti-HLA-DRA) columns. Antibody columns were washed with 10 mM Tris-HCL, pH8.0 with 1% (v/v) NP-40, followed by PBS containing 0.4% (w/v) n-octylglucoside.
(§4) Briefly, 1-10 nM of radiolabeled peptide was co-incubated for 2 days at either room temperature or 37° C. with 1 μM to 1 nM purified HLA-DR molecules in the presence of a cocktail of protease inhibitors. Assays were performed at various pH conditions, ranging from pH 4 to pH 7. […] After incubation, the percentage of HLA-DR-bound radioactivity is determined by capturing HLA-DR/peptide complexes on Optiplates (Packard Instruments, Meriden, Conn.) coated with the LB3.1 antibody and determining bound counts per minute using the TopCount microscintillation counter (Packard Instruments).

The next assay concerns the target T3, purified HLA DRB1*0404 (Homo sapiens, UniProt P01903+P01911, A100R/A169T/F76Y/I96L/K127E/L162R/M171V/N62H/P40V/Q125Y/R42H/S133A/S149N/S66Y/V209L/W38E).
T3 construct: MHC molecules utilized were purified from EBV transformed homozygous cell lines or single MHC allele transfected 721.221, C1R, or fibroblast lines; made in house; host or cells: EBV transformed homozygous cell lines or single MHC allele transfected 721.221, C1R, or fibroblast lines
As to the kind of experiment: HLA-DR radioligand binding inhibition assay, DRB1*0404. Particulars: read-out: IC50 to purified HLA DRB1*0404; purified HLA DRB1*0404. The protocol: as §1, §2

Another assay addresses T4, purified HLA DRB1*0901 (Homo sapiens, UniProt P01903+P01911, A100R/A103E/D57H/D86V/F55Y/F60I/F76Y/I96F/K127E/L162R/M171V/P40D/Q125H/Q99R/R33Q/R42F/S133A/S66N/T210M/V115G/W38K/Y107V/Y59G/Y89S).
T4 construct: MHC molecules utilized were purified from EBV transformed homozygous cell lines or single MHC allele transfected 721.221, C1R, or fibroblast lines; made in house; host or cells: EBV transformed homozygous cell lines or single MHC allele transfected 721.221, C1R, or fibroblast lines
Kind of assay: HLA-DR radioligand binding inhibition assay, DRB1*0901. The protocol:
as §3, §4

A further assay addresses T5, purified HLA DRB1*1201 (Homo sapiens, UniProt P01903+P01911, A100R/A169T/D57E/D86V/F55L/H45Y/K41T/L162R/M171V/P40S/Q125H/Q178H/Q39Y/Q99D/R42G/S66L/T262R/V114A/V67L/W38E/Y59H/Y61H/Y89S).
T5 construct: MHC molecules utilized were purified from EBV transformed homozygous cell lines or single MHC allele transfected 721.221, C1R, or fibroblast lines; made in house; host or cells: EBV transformed homozygous cell lines or single MHC allele transfected 721.221, C1R, or fibroblast lines
As to the kind of experiment: HLA-DR radioligand binding inhibition assay, DRB1*1201. The following applies: column 5 of second part of Table I. The protocol:
as §1, §2

Another assay has as its target T6, purified HLA DRB1*1302 (Homo sapiens, UniProt P01903+P01911, A100E/A169T/K41T/L162R/M171V/P40S/Q125H/Q178H/Q39Y/Q99D/R42S/S66N/T262R/V115G/W38E/Y61H).
T6 construct: MHC molecules utilized were purified from EBV transformed homozygous cell lines or single MHC allele transfected 721.221, C1R, or fibroblast lines; made in house; host or cells: EBV transformed homozygous cell lines or single MHC allele transfected 721.221, C1R, or fibroblast lines
Kind of assay: HLA-DR radioligand binding inhibition assay, DRB1*1302. The following applies: column 6 of second part of Table I. The protocol:
as §3, §4

T6 sequence (P01903 26-254, other chains not shown): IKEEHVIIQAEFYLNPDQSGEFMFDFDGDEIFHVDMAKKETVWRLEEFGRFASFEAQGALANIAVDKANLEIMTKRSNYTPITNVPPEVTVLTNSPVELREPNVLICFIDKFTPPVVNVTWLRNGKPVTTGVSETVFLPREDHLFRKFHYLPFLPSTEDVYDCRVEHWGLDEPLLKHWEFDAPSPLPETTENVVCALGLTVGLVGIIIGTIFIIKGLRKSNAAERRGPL

With `CSCC[C@H](NC(=O)[C@H](CCCNC(=N)N)NC(=O)[C@H](CO)NC(=O)[C@H](Cc1ccccc1)NC(=O)[C@H](CCC(=O)O)NC(=O)[C@H](CO)NC(=O)[C@@H](NC(=O)[C@H](CC(C)C)NC(=O)[C@H](CCC(=O)O)NC(=O)[C@H](CCCNC(=N)N)NC(=O)[C@H](Cc1ccccc1)NC(=O)[C@H](CCCNC(=N)N)NC(=O)[C@@H]1CCCN1C(=O)[C@@H](N)CCCNC(=N)N)C(C)C)C(=O)N[C@@H](C)C(=O)O` [Peptide 9019.0095], the 50% inhibitory concentration (IC50) at purified HLA DRB3*0101 is greater than 20 µM.
`CC[C@H](C)[C@H](N)C(=O)N[C@@H](CS)C(=O)N[C@H](C(=O)N[C@H](C(=O)N[C@@H](CC(=O)O)C(=O)N[C@H](C(=O)N[C@@H](Cc1ccc(O)cc1)C(=O)N[C@@H](CCSC)C(=O)N[C@H](C(=O)N[C@@H](CCSC)C(=O)N[C@H](C(=O)N[C@@H](CCCCN)C(=O)N[C@@H](CS)C(=O)N[C@@H](Cc1c[nH]c2ccccc12)C(=O)N[C@@H](CCSC)C(=O)O)C(C)C)[C@@H](C)CC)C(C)C)[C@@H](C)CC)[C@@H](C)O` [Peptide 1622.04]: the IC50 on purified HLA DRB1*0101 and on purified HLA DRB1*0404 was greater than 20 µM throughout.
`CSCC[C@H](NC(=O)[C@H](CCCNC(=N)N)NC(=O)[C@H](CO)NC(=O)[C@H](Cc1ccccc1)NC(=O)[C@H](CCC(=O)O)NC(=O)[C@H](CO)NC(=O)[C@@H](NC(=O)[C@H](CC(C)C)NC(=O)[C@H](CCC(=O)O)NC(=O)[C@H](CCCNC(=N)N)NC(=O)[C@@H](N)Cc1ccccc1)C(C)C)C(=O)N[C@@H](C)C(=O)N[C@@H](CCCNC(=N)N)C(=O)N[C@@H](CC(=O)O)C(=O)N1CCC[C@H]1C(=O)O` [Peptide 9019.0096]: the IC50 at purified HLA DRB1*0901, at purified HLA DRB1*1201 and at purified HLA DRB1*1302 was greater than 20 µM throughout.
